In the NIST ThermoML archive (doi:10.1016/j.tca.2005.11.041):

Experiment: excess molar enthalpy (molar enthalpy of mixing); xn = mol fraction of the nth substance listed
Settings: Liquid, Flow calorimetry

COC=O [methyl methanoate] + CCC(C)O
excess molar enthalpy [kJ/mol], 298.15 K
Settings	5000 kPa	10000 kPa
x1 = 0.0501	0.4541	–
x1 = 0.0996	–	0.8969
x1 = 0.1	0.8606	–
x1 = 0.1496	1.193	–
x1 = 0.15	–	1.215
x1 = 0.1994	–	1.488
x1 = 0.2	1.472	–
x1 = 0.2493	–	1.709
x1 = 0.2496	1.69	–
x1 = 0.2997	–	1.884
x1 = 0.2999	1.86	–
x1 = 0.3504	–	2.007
x1 = 0.3508	1.985	–
x1 = 0.3993	–	2.091
x1 = 0.4004	2.061	–
x1 = 0.4503	2.104	–
x1 = 0.4504	–	2.132
x1 = 0.4992	–	2.134
x1 = 0.5003	2.108	–
x1 = 0.5501	–	2.097
x1 = 0.5505	2.075	–
x1 = 0.6006	2.005	2.03
x1 = 0.6505	1.913	–
x1 = 0.6508	–	1.919
x1 = 0.7002	1.763	–
x1 = 0.7003	–	1.771
x1 = 0.7491	–	1.592
x1 = 0.7494	1.593	–
x1 = 0.7997	–	1.354
x1 = 0.8004	1.374	–
x1 = 0.8494	–	1.081
x1 = 0.8509	1.09	–
x1 = 0.9006	0.7682	–
x1 = 0.9008	–	0.7291
x1 = 0.9495	0.4154	–

COC=O [methyl methanoate] + CCCO
excess molar enthalpy [kJ/mol]
Settings	298.15 K	333.15 K
5000 kPa, x1 = 0.0399	0.328	–
5000 kPa, x1 = 0.0788	0.6211	–
5000 kPa, x1 = 0.1201	0.8882	–
5000 kPa, x1 = 0.1621	1.116	–
5000 kPa, x1 = 0.2066	1.311	–
5000 kPa, x1 = 0.2501	1.469	–
5000 kPa, x1 = 0.2944	1.59	–
5000 kPa, x1 = 0.3414	1.681	–
5000 kPa, x1 = 0.3893	1.747	–
5000 kPa, x1 = 0.4381	1.777	–
5000 kPa, x1 = 0.4878	1.788	–
5000 kPa, x1 = 0.5386	1.764	–
5000 kPa, x1 = 0.5903	1.706	–
5000 kPa, x1 = 0.6452	1.605	–
5000 kPa, x1 = 0.699	1.475	–
5000 kPa, x1 = 0.7562	1.281	–
5000 kPa, x1 = 0.8146	1.06	–
5000 kPa, x1 = 0.8743	0.7735	–
5000 kPa, x1 = 0.9376	0.4064	–
10000 kPa, x1 = 0.0398	0.3424	–
10000 kPa, x1 = 0.0403	–	0.336
10000 kPa, x1 = 0.0786	0.6463	–
10000 kPa, x1 = 0.0788	–	0.6704
10000 kPa, x1 = 0.1197	0.9222	–
10000 kPa, x1 = 0.1205	–	0.9868
10000 kPa, x1 = 0.1616	1.153	–
10000 kPa, x1 = 0.1629	–	1.264
10000 kPa, x1 = 0.2061	1.358	1.497
10000 kPa, x1 = 0.2495	1.515	–
10000 kPa, x1 = 0.25	–	1.69
10000 kPa, x1 = 0.2937	1.637	–
10000 kPa, x1 = 0.2948	–	1.851
10000 kPa, x1 = 0.3404	–	1.973
10000 kPa, x1 = 0.3407	1.73	–
10000 kPa, x1 = 0.3868	–	2.058
10000 kPa, x1 = 0.3885	1.792	–
10000 kPa, x1 = 0.437	–	2.11
10000 kPa, x1 = 0.4373	1.824	–
10000 kPa, x1 = 0.4853	–	2.128
10000 kPa, x1 = 0.487	1.823	–
10000 kPa, x1 = 0.5374	–	2.098
10000 kPa, x1 = 0.5377	1.791	–
10000 kPa, x1 = 0.5895	1.726	–
10000 kPa, x1 = 0.5907	–	2.035
10000 kPa, x1 = 0.6444	1.621	–
10000 kPa, x1 = 0.645	–	1.92
10000 kPa, x1 = 0.6983	1.492	–
10000 kPa, x1 = 0.7005	–	1.754
10000 kPa, x1 = 0.7556	1.303	–
10000 kPa, x1 = 0.7572	–	1.529
10000 kPa, x1 = 0.8141	1.07	–
10000 kPa, x1 = 0.8151	–	1.267
10000 kPa, x1 = 0.8739	0.773	–
10000 kPa, x1 = 0.8743	–	0.9357
10000 kPa, x1 = 0.9347	–	0.5167
10000 kPa, x1 = 0.9374	0.4032	–
